Experimental data reported in US5080906A, “Method and composition for oral administration of N-acetylcysteine” (Zambon Group, S.p.A., priority 1989, dated 1992).
Where a name gives a salt, the structure may show the parent alone. Read-outs that look alike come from different tables or passages of the source.

Tests used:
[1] = Plasma level of unmodified NAC after oral administration of NAC solutions to rats (GC-MS); format: in vivo, Sprague Dawley rats; conditions: rat, 300 mg/kg NAC (100 μCi/kg 3H-NAC), 0-8 h, * p < 0.005 (Student's t) for NAC-THAM 1:1, read-out: AUC0-8 h, plasma NAC (total unmodified NAC)
Protocol: Sprague Dawley rats after overnight fast were divided into 7 groups of 33 animals each. These seven groups of animals were treated with different NAC solutions by oral route according to the following scheme: […] Blood samples were withdrawn just before the treatment and 15, 20, 45, 60, 90, 120, 240, 360, 480 and 1,440 minutes after treatment, via a heparinized syringe. The blood was immediately transferred into plastic tubes containing sodium dithionite (1 mg/5 μl) and 0.02N sodium EDTA (200 μl ). The plasma was separated by centrifugation at 5,000×g at 4° C. for 20 minutes and the samples thus obtained were stored at -20° C. until the analysis. […] The samples were kept at 37° C. for one hour and then an acetone:formic acid=4:1 (1 ml) mixture was added. The proteins were separated at 20,000×g for 20 minutes by centrifugation. To the supernatant 2M HCl (200 μl) was added and then the NAC was extracted twice with ethyl acetate (6 ml). […] At the end of the reaction, excess isopropanol was eliminated and the samples were reacted with 3:1 ethyl acetate:pentafluoropropionic anhydride (200 μl) at 60° C. for 30 minutes. […] In Table 1 the plasma concentrations of NAC, expressed as AUC0-8h, the total NAC detected expressed as g/l, are reported for each group of animals and treatment regimen.

[2] = Total radioactivity in plasma after oral 3H-NAC in rats; format: in vivo, Sprague Dawley rats; conditions: rat, 300 mg/kg NAC (100 μCi/kg 3H-NAC), 0-24 h
Protocol: Sprague Dawley rats after overnight fast were divided into 7 groups of 33 animals each. These seven groups of animals were treated with different NAC solutions by oral route according to the following scheme:
Group 1-NAC (300 mg/kg) dissolved in water (10 ml/kg)
Group 5-NAC (300 mg/kg) and THAM (222.7 mg/kg) dissolved in water (10 ml/kg); molar ratio 1:1
For each group of animals the NAC dose (300 mg/kg) contained ^3 H-NAC in an amount yielding 100 μCi/kg. Blood samples were withdrawn just before the treatment and 15, 20, 45, 60, 90, 120, 240, 360, 480 and 1,440 minutes after treatment, via a heparinized syringe. The blood was immediately transferred into plastic tubes containing sodium dithionite (1 mg/5 μl) and 0.02N sodium EDTA (200 μl ). The plasma was separated by centrifugation at 5,000×g at 4° C. for 20 minutes and the samples thus obtained were stored at -20° C. until the analysis.
Samples of plasma (50 μl) were added to Lumagel (10 ml), were stirred and were then allowed to stand in the scintillation counter (Beckman LS 8100) at 15° C. for 4 hours. Radioactivity was measured after the stabilization time.
The total radioactivity in plasma after administration of 300 mg/kg of NAC (containing 100 μCi/kg of ^3 H-NAC) (group 1) and after administration of the same amount of NAC with THAM in the ratio 1:1 (group 5) are reported in Table 2.

[3] = in vivo; parameters: species or system Male Beagle dogs; conditions: dog, po, 50 mg/kg
Protocol: (§1) Male Beagle dogs were fasted overnight and were divided into 4 groups of 4 animals each. The four groups were treated orally with different NAC solutions according to the following scheme: […] For each group of animals the dose of NAC ([…]) contained an amount of ^14 C-NAC equal to 20 μCi/kg. Blood samples were withdrawn by a heparinized syringe just before the treatment and 10, 20, 30, 45, 60, 120, 240, 360, 480 and 1,440 minutes after treatment. The blood samples were treated and stored according to the same procedure described in Example 1.

[4] = parameters: species or system Male Beagle dogs; conditions: dog, in vivo, po, 50 mg/kg
Protocol: as §1

[5] = result in words; cited from earlier work
[6] = THAM salt; result in words; cited from earlier work

SMILES	AUC(0-t) at 8 h [1]	AUC0-24 h, total radioactivity in plasma [2]	AUC(0-inf) ([3]; AUC0-.infin., plasma NAC (unmodified))	AUC0-24 h, total radioactivity in plasma [4]	solubility [5]	AUC0-.infin., plasma NAC (unmodified) [3]	amount of unmodified NAC in plasma compared with NAC alone [3]	total amount of absorbed NAC compared with NAC as such [4]	bioavailability [6]
CC(=O)N[C@@H](CS)C(=O)O [NAC, N-acetylcysteine]	105000 ± 3000 ng·h/mL	4048.3 ± 105.9 mgh/l	57500 ± 7290 ng·h/mL	1864.13 ± 856.57 mghl^-1	soluble				
CC(=O)N[C@@H](CS)C(=O)O [NAC-lysinate, NAC lysinate]				1247.23 ± 185.18 mghl^-1		73.37 ± 10.33 mgh/l	do not provide plasma levels meaningfully different from those of NAC itself	not different	
C[C@@H]1O[C@@H]1P(=O)(O)O [THAM salt of the antibiotic Fosfomycin]									better bioavailability
